TGI and GI50 data for eight molecules are collected here from PubChem BioAssay (NCI).

Several values for one entry are separate records, joined by “and”; a condition that tells them apart may be missing. Equal entries are not always repeated.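 All cell lines were grown in 96-well plates and treated with compound for 48 hours. GI50 is the concentration that inhibits growth by half. The concentration for full growth arrest is given as TGI.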

Some test systems named below: CAKI-1 renal; OVCAR-4 ovarian; SF-295 CNS; HCC-2998 colon; U251 CNS; T-47D breast; COLO 205 colon; NCI-H522 lung; UACC-62 melanoma; MDA-MB-435.
Common to all, as to assay: inhibition of tumour cell growth, NCI panel, 48 h

Take `Nc1ccc(C(=O)CC(N)C(=O)O)cc1O` (stereo not drawn): the TGI in the assay with CAKI-1 renal, with OVCAR-4 ovarian, in the assay with SF-295 CNS, with HCC-2998 colon, in the assay with U251 CNS and in the assay with T-47D breast was more than 100 µM throughout. The TGI in the assay on COLO 205 colon, with NCI-H522 lung, in the assay with UACC-62 melanoma and in the assay with MDA-MB-435 was more than 100 µM each time.
For the molecule `COc1ccc(N2C(=O)[C@H]3CC(C)c4c([nH]c5ccccc45)[C@H]3C2=O)cc1` (stereo partly drawn), the TGI was found to be 27.3 µM in the assay with CAKI-1 renal; 30.6 µM in the assay on OVCAR-4 ovarian; 7.71 µM in the assay on SF-295 CNS; 69 µM in the assay on HCC-2998 colon; 20.4 µM in the assay with U251 CNS; 68.8 µM in the assay with T-47D breast. Further, the TGI in the assay on COLO 205 colon was 9.11 µM; in the assay on NCI-H522 lung, 4.24 µM; in the assay on UACC-62 melanoma, 22.7 µM; in the assay on MDA-MB-435, 2.3 µM.
Take `COc1ccc2[nH]c(O)c(C(=Nc3ccc(N(C)C(=O)CN4CCN(C)CC4)cc3)c3ccccc3)c2c1`: the GI50 in the assay with CAKI-1 renal was 0.847 µM; in the assay on OVCAR-4 ovarian, 2.13 µM; in the assay with SF-295 CNS it was 4.65 µM; with HCC-2998 colon it was 2.47 µM; in the assay on U251 CNS it was 1.84 µM; with T-47D breast, 3.54 µM. The GI50 in the assay with COLO 205 colon was 0.575 µM; in the assay with NCI-H522 lung, 2.52 µM; in the assay on UACC-62 melanoma, 5.01 µM; in the assay on MDA-MB-435, 1.29 µM. The TGI amounted to 5.92 µM in the assay with CAKI-1 renal; 12.6 µM in the assay on OVCAR-4 ovarian; 15.8 µM with SF-295 CNS; 8.59 µM with HCC-2998 colon; 5.27 µM in the assay on U251 CNS; 15.9 µM in the assay with T-47D breast. In addition, the TGI with COLO 205 colon amounted to 2.9 µM; in the assay on NCI-H522 lung, 8.96 µM; in the assay on UACC-62 melanoma, 16.4 µM; with MDA-MB-435, 11.3 µM.
As for `C=CC(=O)Nc1cc2c(Nc3ccc(F)c(Cl)c3)ncnc2cc1OCCCN1CCOCC1`, the TGI was 2.67 µM and > 10 µM with CAKI-1 renal; 9.73 µM and > 10 µM in the assay on OVCAR-4 ovarian; 17.4 µM and > 10 µM in the assay with SF-295 CNS; 3.46 µM and > 6.08 µM with HCC-2998 colon; 14.9 µM and > 10 µM with U251 CNS; 18.7 µM and > 10 µM in the assay on T-47D breast. Also, the TGI was 7.32 µM and > 10 µM with COLO 205 colon; 2.37 µM and 1.98 µM with NCI-H522 lung; 4.48 µM and > 7.71 µM in the assay on UACC-62 melanoma; 12 µM and > 10 µM with MDA-MB-435. The GI50 in the assay with OVCAR-4 ovarian was 2.61 µM and 2.71 µM; in the assay with SF-295 CNS, 4.12 µM; in the assay on HCC-2998 colon it was 1.82 µM and 2.67 µM; with U251 CNS it was 3.57 µM and > 6.22 µM; with T-47D breast, 0.0677 µM and 0.182 µM; in the assay on COLO 205 colon, 2.42 µM and 4.59 µM. Further, the GI50 is 0.546 µM and 0.119 µM with NCI-H522 lung; 1.77 µM and 2.19 µM in the assay on UACC-62 melanoma; 2.67 µM and 4.1 µM with MDA-MB-435.
Regarding `CCn1c2ccc(O)cc2c2c(C)c3c[n+](C)ccc3c(C)c21`, the GI50 is 65.2 µM in the assay with CAKI-1 renal; 5.83 µM in the assay with OVCAR-4 ovarian; 0.748 µM in the assay with SF-295 CNS; 3.9 µM with HCC-2998 colon; 0.307 µM in the assay on U251 CNS; 0.435 µM with T-47D breast. In addition, the GI50 in the assay on COLO 205 colon is 3.03 µM; in the assay on NCI-H522 lung it was 1.46 µM; with UACC-62 melanoma, 2.05 µM; in the assay on MDA-MB-435, 9.17 µM. Also, the TGI was more than 100 µM in the assay on CAKI-1 renal; 47.1 µM in the assay with OVCAR-4 ovarian; 31.4 µM in the assay on SF-295 CNS; 23.4 µM in the assay on HCC-2998 colon; 9.72 µM with U251 CNS; 4.13 µM in the assay with T-47D breast. In addition, the TGI amounted to 17.3 µM with COLO 205 colon, 10.4 µM in the assay with NCI-H522 lung, 22.8 µM in the assay on UACC-62 melanoma and 50.9 µM with MDA-MB-435.
On to `CC[PH+](CC)CC.O=COC1OC([S-])C(OC=O)C(OC=O)C1OC=O.[Au+]` (stereo not drawn), for which the GI50 in the assay with CAKI-1 renal is 1.71 µM; with OVCAR-4 ovarian, 1.89 µM; in the assay with SF-295 CNS it was 1.8 µM; in the assay on HCC-2998 colon it was 1.6 µM; in the assay on U251 CNS it was 0.368 µM; with T-47D breast, 1.96 µM. In addition, the GI50 was 2.23 µM in the assay with COLO 205 colon, 1.17 µM with NCI-H522 lung, 1.06 µM in the assay on UACC-62 melanoma and 1.43 µM in the assay with MDA-MB-435. Moreover, the TGI was 3.08 µM in the assay with CAKI-1 renal; 4.53 µM with OVCAR-4 ovarian; 3.24 µM in the assay on SF-295 CNS; 3.03 µM in the assay with HCC-2998 colon; 1.47 µM with U251 CNS; 6.47 µM in the assay on T-47D breast. For the same molecule, the TGI is 4.7 µM with COLO 205 colon, 3.97 µM with NCI-H522 lung, 2.31 µM in the assay with UACC-62 melanoma and 2.97 µM in the assay with MDA-MB-435.
For `CCn1c(-c2nonc2N)nc2c(C#CC(C)(C)O)nc(OCCNC)cc21`, the GI50 is more than 18.2 µM with CAKI-1 renal; 9.89 µM with OVCAR-4 ovarian; 6.66 µM in the assay on SF-295 CNS; 5.34 µM in the assay on HCC-2998 colon; 6.5 µM in the assay on U251 CNS; 3.83 µM with T-47D breast. The GI50 with COLO 205 colon is 4.84 µM; in the assay on NCI-H522 lung it was 4.98 µM; with UACC-62 melanoma, 6.08 µM; in the assay with MDA-MB-435 it was 8.58 µM. In addition, the TGI in the assay with CAKI-1 renal is more than 25 µM; in the assay on OVCAR-4 ovarian, more than 25 µM; in the assay with SF-295 CNS, more than 22.6 µM; in the assay with HCC-2998 colon it was more than 25 µM; with U251 CNS it was more than 25 µM; in the assay with T-47D breast, more than 25 µM. Also, the TGI in the assay on COLO 205 colon is 10.3 µM; with NCI-H522 lung, 9.72 µM; in the assay on UACC-62 melanoma, 16.9 µM; in the assay with MDA-MB-435 it was more than 25 µM.
Take `Cc1cc(Cl)ccc1Nc1nc(C(F)(F)F)ccc1C(=O)N/N=C/c1ccc([N+](=O)[O-])cc1`: the GI50 in the assay on CAKI-1 renal is 2.24 µM; with OVCAR-4 ovarian it was 0.602 µM; in the assay on SF-295 CNS it was 1.55 µM; with HCC-2998 colon, 1.43 µM; in the assay with U251 CNS, 0.953 µM; in the assay on T-47D breast it was 2.39 µM. In addition, the GI50 with COLO 205 colon is 1.75 µM; in the assay on NCI-H522 lung, 1.55 µM; in the assay on UACC-62 melanoma, 2.6 µM; in the assay with MDA-MB-435, 2.45 µM. Besides, the TGI with CAKI-1 renal was 11.4 µM; in the assay with OVCAR-4 ovarian, more than 20 µM; with SF-295 CNS, 5.71 µM; with HCC-2998 colon, 4.28 µM; in the assay on T-47D breast, 11.6 µM; in the assay with COLO 205 colon, 3.64 µM. In addition, the results for the TGI with NCI-H522 lung, in the assay on UACC-62 melanoma and in the assay with MDA-MB-435 were more than 20.5 µM, 11.7 µM and 7.69 µM, respectively.
